From patent US5164405A, “Nicardipine pharmaceutical composition for parenteral administration” (Syntex (U.S.A.) Inc., priority 1990, dated 1992)

How the values were obtained:
[1] = Dissolution, free base precipitation and tonicity on preparation of formulations; assay type: physicochemical; details: for Dissolution: added to citrate buffer solution; for Dissolution / Dissolution in water for injection / free base precipitation: monohydrochloride; for Dissolution in water for injection / free base precipitation: unbuffered water for injection, before pH adjustment
Protocol: With regard to the process for producing the stable pharmaceutical composition according to the inventions, preferably the citric acid and sodium hydroxide is first dissolved in some water for injection to form a solution of the desired pH. The nicardipine HCI and sorbitol are then added and dissolved in this solution of controlled pH and the resulting solution made to volume with the remainder of the water for injection.
A. In an initial attempt to formulate a pharmaceutical composition of nicardipine hydrochloride suitable for parenteral administration employing conventional techniques well known in the pertinent art, 1 mg of nicardipine hydrochloride was dissolved in water for injection. To this was admixed 6 mg of sodium chloride and a sufficient amount of hydrochloric acid to give a solution having a pH of 3 5. This solution was then made up to volume with water for injection, i.e., to 1 ml. The resulting composition was packaged in an ampule and sterilized by autoclaving.
B. Then, in a following attempt to formulate a pharmaceutical composition of nicardipine hydrochloride for parenteral administration employing conventional techniques well known in the pertinent art, 1 mg of nicardipine hydrochloride together with about 50 mg of the non-chloride, saccharide compound, sorbitol, were dissolved in a portion of water for injection. Sufficient amounts of concentrated hydrochloric acid was added to produce a solution of pH 3.5 and the composition was made to volume with the remainder of the water for injection, i.e. to 1 ml. The resulting composition was packaged in an ampule and sterilized by autoclaving.
The solution was made up to volume, i.e 1 ml. with the remainder of the water for injection. This solution was then filled into ampules and terminally sterilized by autoclaving.

physchem = assay type: physicochemical; details: for solubility thermodynamic: Equilibrium solubility
Text: The solubilities were equilibrium solubilities measured by a saturated solution method well known to those skilled in the art.

Dissolution ([1]; listed as Nicardipine HCl): very easy
Dissolution [1]: rapid and complete dissolution
Temperature that can be required for dissolution ([1]; dissolved in water, before buffer addition or unbuffered): 60-70 °C
Dissolution in water for injection / free base precipitation ([1]; listed as Nicardipine HCl): difficult
Aqueous solubility as a function of pH (physchem): reduction in the aqueous solubility
solubility thermodynamic (physchem; water, pH 3.05, water): 2.94 mg/mL
solubility thermodynamic (physchem; water, pH 3.45, water): 3.28 mg/mL
Equilibrium solubility (physchem; water, pH 4.06): 5.16 mg/mL
solubility thermodynamic (physchem; water, pH 4.06, water): 2.95 mg/mL
solubility thermodynamic (physchem; water, pH 4.24, water): 2.35 mg/mL
solubility thermodynamic (physchem; water, pH 4.68, water): 0.85 mg/mL
solubility thermodynamic (physchem; water, pH 5.05, water): 0.36 mg/mL
solubility thermodynamic (physchem; water, pH 6.21, water): 0.025 mg/mL
SMILES: COC(=O)C1=C(C)NC(C)=C(C(=O)OCCN(C)Cc2ccccc2)C1c1cccc([N+](=O)[O-])c1.Cl (stereo not shown) [Nicardipine Hydrochloride, 2-(Benzylmethylamino)ethyl methyl 1,4-dihydro-2,6-dimethyl-4-(m-nitrophenyl)-3,5-pyridine-dicarboxylate monohydrochloride]
Precipitation of free base ([1]; dissolved in buffer solution): No precipitation of free base was observed
Dissolution of required dose strength (1 mg per ml) ([1]; sodium chloride increased to give an isotonic solution): failure to dissolve sufficient nicardipine hydrochloride
Dissolution in water for injection / free base precipitation [1]: formation of nicardipine free base which precipitates from solution
